{"source": "patent US20120142605A1", "about": "“METHODS OF TREATING PSORIASIS” (Amgen Inc., priority 2009, published 2012)", "origin": "cited, not measured here", "tested_on": "psoriasis patients", "settings": "not completely effective for all patients"}
{"substance": "etanercept", "values": [{"measurement": "time for which it can be safely and effectively used", "result": "at least 96 weeks"}]}
